Source: patent US11498899B2, “Nitrone herbicides” (FMC Corporation, priority 2016, dated 2022)

Key:
[1] = test system: ryegrass, Italian (Italian ryegrass, Lolium multiflorum); assay: Test A preemergence, visual injury rating 0-100; format: in vivo; settings: for Ryegrass, Italian plant response rating (0 to 100 scale): 125 g ai/ha; for Ryegrass, Italian plant response rating: 500 g ai/ha, 0 to 100 scale
[2] = test system: kochia (Kochia scoparia); assay: Test A preemergence, visual injury rating 0-100; format: in vivo; settings: for Kochia plant response rating (0 to 100 scale): 125 g ai/ha; for Kochia plant response rating: 500 g ai/ha, 0 to 100 scale
[3] = test system: foxtail, green (green foxtail, Setaria viridis); assay: Test A preemergence, visual injury rating 0-100; format: in vivo; settings: for Foxtail, Green plant response rating (0 to 100 scale): 125 g ai/ha; for Foxtail, Green plant response rating: 500 g ai/ha, 0 to 100 scale
[4] = test system: ragweed (common ragweed, Ambrosia elatior); assay: Test A preemergence, visual injury rating 0-100; format: in vivo; settings: for Ragweed plant response rating (0 to 100 scale): 125 g ai/ha; for Ragweed plant response rating: 500 g ai/ha, 0 to 100 scale
[5] = test system: pigweed (Amaranthus retroflexus); assay: Test A preemergence, visual injury rating 0-100; format: in vivo; settings: for Pigweed plant response rating (0 to 100 scale): 125 g ai/ha; for Pigweed plant response rating: 500 g ai/ha, 0 to 100 scale
[6] = test system: barnyardgrass (Echinochloa crus-galli); assay: Test A preemergence, visual injury rating 0-100 (0 no effect, 100 complete control); format: in vivo; settings: for Barnyardgrass plant response rating (0 to 100 scale): 125 g ai/ha; for Barnyardgrass plant response rating: 500 g ai/ha, 0 to 100 scale
[7] = test system: ducksalad (Heteranthera limosa); assay: Test B flooded paddy test, visual rating 0-100; settings: Flood, 250 g ai/ha, applied to paddy water, rated after 13 to 15 days
[8] = test system: rice (Oryza sativa); assay: Test B flooded paddy test, visual rating 0-100 (0 no effect, 100 complete control); settings: Flood, 250 g ai/ha, applied to paddy water, rated after 13 to 15 days
[9] = test system: blackgrass (Alopecurus myosuroides); assay: Test A postemergence, visual injury rating 0-100; format: in vivo; settings: 0 to 100 scale
[10] = test system: corn (Zea mays); assay: Test A postemergence, visual injury rating 0-100; format: in vivo; settings: 0 to 100 scale
[11] = test system: wheat (Triticum aestivum); assay: Test A postemergence, visual injury rating 0-100; format: in vivo; settings: 0 to 100 scale
[12] = test system: ryegrass, Italian (Italian ryegrass, Lolium multiflorum); assay: Test A postemergence, visual injury rating 0-100; format: in vivo; settings: 0 to 100 scale
[13] = test system: kochia (Kochia scoparia); assay: Test A postemergence, visual injury rating 0-100; format: in vivo; settings: 0 to 100 scale
[14] = test system: foxtail, green (green foxtail, Setaria viridis); assay: Test A postemergence, visual injury rating 0-100; format: in vivo; settings: 0 to 100 scale
[15] = test system: ragweed (common ragweed, Ambrosia elatior); assay: Test A postemergence, visual injury rating 0-100; format: in vivo; settings: 0 to 100 scale
[16] = test system: pigweed (Amaranthus retroflexus); assay: Test A postemergence, visual injury rating 0-100; format: in vivo; settings: 0 to 100 scale
[17] = test system: barnyardgrass (Echinochloa crus-galli); assay: Test A postemergence, visual injury rating 0-100; format: in vivo; settings: 0 to 100 scale
[18] = test system: galium (catchweed bedstraw, Galium aparine); assay: Test A postemergence, visual injury rating 0-100; format: in vivo; settings: 0 to 100 scale
[19] = test system: barnyardgrass (Echinochloa crus-galli); assay: Test B flooded paddy test, visual rating 0-100; settings: Flood, 250 g ai/ha, applied to paddy water, rated after 13 to 15 days

SMILES | Ryegrass, Italian plant response rating (0 to 100 scale) [1] | Ryegrass, Italian plant response rating [1] | Kochia plant response rating (0 to 100 scale) [2] | Kochia plant response rating [2] | Foxtail, Green plant response rating (0 to 100 scale) [3] | Foxtail, Green plant response rating [3] | Ragweed plant response rating (0 to 100 scale) [4] | Ragweed plant response rating [4] | Pigweed plant response rating (0 to 100 scale) [5] | Pigweed plant response rating [5] | Barnyardgrass plant response rating (0 to 100 scale) [6] | Barnyardgrass plant response rating [6] | Ducksalad plant response rating (0 to 100 scale) [7] | Rice plant response rating (0 to 100 scale) [8] | Blackgrass plant response rating ([9]; 125 g ai/ha) | Blackgrass plant response rating ([9]; 500 g ai/ha) | Corn plant response rating ([10]; 125 g ai/ha) | Corn plant response rating ([10]; 500 g ai/ha) | Wheat plant response rating ([11]; 125 g ai/ha) | Wheat plant response rating ([11]; 500 g ai/ha) | further results
CC1=[N+]([O-])C(C(=O)Nc2cccc(F)c2F)C(c2ccc(Br)cc2)C1 (racemic) [Compound 20] | 0 | 20 | 0 | 50 | 60 | 90 | 20 | 60 | 60 | 80 | 60 | 90 | 100 | 0 | 0 | 30 | 0 | 0 | 0 | 30 | Ryegrass, Italian plant response rating ([12]; 125 g ai/ha): 0; Ryegrass, Italian plant response rating ([12]; 500 g ai/ha): 30; Kochia plant response rating ([13]; 125 g ai/ha): 0; Kochia plant response rating ([13]; 500 g ai/ha): 30; Foxtail, Green plant response rating ([14]; 125 g ai/ha): 0; Foxtail, Green plant response rating ([14]; 500 g ai/ha): 60; Ragweed plant response rating ([15]; 125 g ai/ha): 0; Ragweed plant response rating ([15]; 500 g ai/ha): 30; Pigweed plant response rating ([16]; 125 g ai/ha): 0; Pigweed plant response rating ([16]; 500 g ai/ha): 40; Barnyardgrass plant response rating ([17]; 125 g ai/ha): 10; Barnyardgrass plant response rating ([17]; 500 g ai/ha): 50; Galium plant response rating ([18]; 125 g ai/ha): 30; Galium plant response rating ([18]; 500 g ai/ha): 40; Barnyardgrass plant response rating (0 to 100 scale) [19]: 95
CC1=[N+]([O-])C(C(=O)Nc2cccc(F)c2F)C(c2ccccc2F)C1 (racemic) [Compound 21] | 0 | 0 | 0 | 40 | 20 | 90 | 0 | 0 | 0 | 0 | 10 | 90 | 80 | 0 | 0 | 20 | 0 | 20 | 0 | 0 | Ryegrass, Italian plant response rating ([12]; 125 g ai/ha): 0; Ryegrass, Italian plant response rating ([12]; 500 g ai/ha): 0; Kochia plant response rating ([13]; 125 g ai/ha): 0; Kochia plant response rating ([13]; 500 g ai/ha): 0; Foxtail, Green plant response rating ([14]; 125 g ai/ha): 0; Foxtail, Green plant response rating ([14]; 500 g ai/ha): 20; Ragweed plant response rating ([15]; 125 g ai/ha): 0; Ragweed plant response rating ([15]; 500 g ai/ha): 0; Pigweed plant response rating ([16]; 125 g ai/ha): 0; Pigweed plant response rating ([16]; 500 g ai/ha): 0; Barnyardgrass plant response rating ([17]; 125 g ai/ha): 0; Barnyardgrass plant response rating ([17]; 500 g ai/ha): 50; Galium plant response rating ([18]; 125 g ai/ha): 0; Galium plant response rating ([18]; 500 g ai/ha): 0; Barnyardgrass plant response rating (0 to 100 scale) [19]: 40
CC1=[N+]([O-])C(C(=O)Nc2cccc(C#N)c2F)C(c2ccc(C(F)(F)F)cc2)C1 (racemic) [Compound 28] | 20 | 20 | 0 | 70 | 90 | 100 | 80 | 100 | 90 | 100 | 80 | 100 | 0 | 0 | 0 | 40 | 0 | 0 | 0 | 0 | Ryegrass, Italian plant response rating ([12]; 125 g ai/ha): 0; Ryegrass, Italian plant response rating ([12]; 500 g ai/ha): 20; Kochia plant response rating ([13]; 125 g ai/ha): 0; Kochia plant response rating ([13]; 500 g ai/ha): 20; Foxtail, Green plant response rating ([14]; 125 g ai/ha): 30; Foxtail, Green plant response rating ([14]; 500 g ai/ha): 90; Ragweed plant response rating ([15]; 125 g ai/ha): 0; Ragweed plant response rating ([15]; 500 g ai/ha): 70; Pigweed plant response rating ([16]; 125 g ai/ha): 0; Pigweed plant response rating ([16]; 500 g ai/ha): 70; Barnyardgrass plant response rating ([17]; 125 g ai/ha): 20; Barnyardgrass plant response rating ([17]; 500 g ai/ha): 90; Galium plant response rating ([18]; 125 g ai/ha): 70; Galium plant response rating ([18]; 500 g ai/ha): 70; Barnyardgrass plant response rating (0 to 100 scale) [19]: 30
CSc1ccccc1NC(=O)C1C(c2ccc(C(F)(F)F)cc2)CC(C)=[N+]1[O-] (racemic) [Compound 29] | 0 | 20 | 0 | 20 | 20 | 100 | 20 | 100 | 10 | 90 | 0 | 80 | 0 | 0 | 20 | 30 | 0 | 0 | 0 | 0 | Ryegrass, Italian plant response rating ([12]; 125 g ai/ha): 0; Ryegrass, Italian plant response rating ([12]; 500 g ai/ha): 0; Kochia plant response rating ([13]; 125 g ai/ha): 0; Kochia plant response rating ([13]; 500 g ai/ha): 0; Foxtail, Green plant response rating ([14]; 125 g ai/ha): 20; Foxtail, Green plant response rating ([14]; 500 g ai/ha): 50; Ragweed plant response rating ([15]; 125 g ai/ha): 0; Ragweed plant response rating ([15]; 500 g ai/ha): 60; Pigweed plant response rating ([16]; 125 g ai/ha): 10; Pigweed plant response rating ([16]; 500 g ai/ha): 30; Barnyardgrass plant response rating ([17]; 125 g ai/ha): 10; Barnyardgrass plant response rating ([17]; 500 g ai/ha): 30; Galium plant response rating ([18]; 125 g ai/ha): 40; Galium plant response rating ([18]; 500 g ai/ha): 60; Barnyardgrass plant response rating (0 to 100 scale) [19]: 0
